From article PMC9767416, “Discovery of small molecule mechanistic target of rapamycin inhibitors as anti-aging and anti-cancer therapeutics” (Frontiers in Aging Neuroscience, 2022)

Tests used:
[1] = system: C57BL/6 (B6) male mice; assay: Spleen cell populations by flow cytometry in the tolerability study; format: in vivo; settings: for CD4+ spleen cells / CD8+ spleen cells / Cd11b+/Gr-1+ spleen cells: percentage from the CD45+ cells
Experimental: (§1) During the experiments, mice behavior and possible apparent signs of toxicity were monitored daily. The body weights were determined on days 0, 4, and 8. On day 8, blood (25 μL) was withdrawn using a capillary pipette containing anticoagulant (heparin) from the retroorbital sinus into EDTA-containing tubes. Basic hematological parameters were measured using the Mindray BC-5300 Vet. Mice were then killed, autopsied, and abdominal organs (spleen, liver, and kidney) were removed for visual examination and imaging by a digital camera. Single-cell suspensions from the spleens were prepared by homogenization through a cell strainer (70 μm; BD Biosciences, San Jose, CA, USA). Erythrocytes were osmotically lysed using ammonium chloride-potassium lysis buffer, and the cell suspensions were washed three times in the RPMI-1640 medium and used for further analysis by flow cytometry for selected cell populations.
The cellularity of selected spleen cell populations was analyzed by flow cytometry. Cell suspensions were washed and preincubated with anti-CD16/CD32 (2.4G2) antibody to minimize non-specific binding at 4°C for 15 min following the washing step and incubation with labeled primary antibody at 4°C for 30 min. Relevant isotype controls of irrelevant specificity were used. FACS buffer (PBS, 1% FBS, 0.1% NaN3) was used for all washing steps and analysis. The following antibodies were used for FACS analyses: BV421 anti-mouse CD45 (30-F11), PE anti-mouse CD8α (53-6.7), BV711 anti-mouse CD4 (RM4-5), APC anti-mouse Ly-6g/Ly-6C (Gr-1) (RB6-8C5), BV711 anti-mouse CD11b (M1/70). FACS analysis was performed using a flow cytometer Symphony (BD Biosciences) and analyzed using FlowJo 10 software (FlowJo LLC, Ashland, OR, USA).

[2] = system: C57BL/6 (B6) male mice; assay: Blood counts in the tolerability study; format: in vivo; settings: mice, blood day 8; for Eos / HOT / MPV / Neu / PCT / PDW / RBC / RDW-CV / lvm / PLT / WBC / MCV / RDW-SD / HGB / MCHC / MCH / Mon: AVG; for PLT / WBC: in 10^9/L (unit assumed); for MCV / RDW-SD: in fL (unit assumed); for HGB / MCHC: in g/L (unit assumed); for MCH: in pg (unit assumed); for Mon: unit assumed
Experimental: Compounds were dissolved in 20 μL DMSO and completed into 200 μL with corn oil.
as §1

CC(C)n1nc(-c2cc3cc(O)ccc3[nH]2)c2c(N)ncnc21 [Torkinib, torkinib]
CD45+ spleen cells ([1]; 5 mg/kg p.o. days 0, 3, 5, spleen day 8): 92.0% | CD4+ spleen cells ([1]; 5 mg/kg p.o.): 15.5% | CD8+ spleen cells ([1]; 5 mg/kg p.o.): 10.4% | Cd11b+/Gr-1+ spleen cells ([1]; 5 mg/kg p.o.): 0.9% | CD45+ spleen cells ([1]; 25 mg/kg p.o. days 0, 3, 5, spleen day 8): 96.7% | CD4+ spleen cells ([1]; 25 mg/kg p.o.): 15.4% | CD8+ spleen cells ([1]; 25 mg/kg p.o.): 9.8% | Cd11b+/Gr-1+ spleen cells ([1]; 25 mg/kg p.o.): 0.6% | CD45+ spleen cells ([1]; 50 mg/kg p.o. days 0, 3, 5, spleen day 8): 84.0% | CD4+ spleen cells ([1]; 50 mg/kg p.o.): 16.6% | CD8+ spleen cells ([1]; 50 mg/kg p.o.): 10.2% | Cd11b+/Gr-1+ spleen cells ([1]; 50 mg/kg p.o.): 1.3% | Eos ([2]; 5 mg/kg p.o. days 0, 3, 5): 0.04 | HOT ([2]; 5 mg/kg p.o. days 0, 3, 5): 0.49 | MPV ([2]; 5 mg/kg p.o. days 0, 3, 5): 5.33 | Neu ([2]; 5 mg/kg p.o. days 0, 3, 5): 0.99 | PCT ([2]; 5 mg/kg p.o. days 0, 3, 5): 3.59 | PDW ([2]; 5 mg/kg p.o. days 0, 3, 5): 14.57 | RBC ([2]; 5 mg/kg p.o. days 0, 3, 5): 9.25 10^12/L | RDW-CV ([2]; 5 mg/kg p.o. days 0, 3, 5): 0.14 | lvm ([2]; 5 mg/kg p.o. days 0, 3, 5): 8.67 | PLT ([2]; 5 mg/kg p.o. days 0, 3, 5): 690.67 | WBC ([2]; 5 mg/kg p.o. days 0, 3, 5): 10.43 | MCV ([2]; 5 mg/kg p.o. days 0, 3, 5): 53.73 | RDW-SD ([2]; 5 mg/kg p.o. days 0, 3, 5): 31.77 | HGB ([2]; 5 mg/kg p.o. days 0, 3, 5): 146.00 | MCHC ([2]; 5 mg/kg p.o. days 0, 3, 5): 296.67 | MCH ([2]; 5 mg/kg p.o. days 0, 3, 5): 15.97 | Mon ([2]; 5 mg/kg p.o. days 0, 3, 5): 0.73 10^9/L | Eos ([2]; 25 mg/kg p.o. days 0, 3, 5): 0.08 | HOT ([2]; 25 mg/kg p.o. days 0, 3, 5): 0.52 | MPV ([2]; 25 mg/kg p.o. days 0, 3, 5): 5.30 | Neu ([2]; 25 mg/kg p.o. days 0, 3, 5): 0.79 | PCT ([2]; 25 mg/kg p.o. days 0, 3, 5): 3.79 | PDW ([2]; 25 mg/kg p.o. days 0, 3, 5): 14.73 | RBC ([2]; 25 mg/kg p.o. days 0, 3, 5): 9.96 10^12/L | RDW-CV ([2]; 25 mg/kg p.o. days 0, 3, 5): 0.14 | lvm ([2]; 25 mg/kg p.o. days 0, 3, 5): 6.68 | PLT ([2]; 25 mg/kg p.o. days 0, 3, 5): 712.00 | WBC ([2]; 25 mg/kg p.o. days 0, 3, 5): 8.14 | MCV ([2]; 25 mg/kg p.o. days 0, 3, 5): 51.90 | RDW-SD ([2]; 25 mg/kg p.o. days 0, 3, 5): 29.23 | HGB ([2]; 25 mg/kg p.o. days 0, 3, 5): 154.00 | MCHC ([2]; 25 mg/kg p.o. days 0, 3, 5): 298.00 | MCH ([2]; 25 mg/kg p.o. days 0, 3, 5): 15.50 | Mon ([2]; 25 mg/kg p.o. days 0, 3, 5): 0.59 10^9/L | Eos ([2]; 50 mg/kg p.o. days 0, 3, 5): 0.04 | HOT ([2]; 50 mg/kg p.o. days 0, 3, 5): 0.53 | MPV ([2]; 50 mg/kg p.o. days 0, 3, 5): 5.43 | Neu ([2]; 50 mg/kg p.o. days 0, 3, 5): 1.25 | PCT ([2]; 50 mg/kg p.o. days 0, 3, 5): 4.73 | PDW ([2]; 50 mg/kg p.o. days 0, 3, 5): 14.67 | RBC ([2]; 50 mg/kg p.o. days 0, 3, 5): 9.95 10^12/L | RDW-CV ([2]; 50 mg/kg p.o. days 0, 3, 5): 0.14 | lvm ([2]; 50 mg/kg p.o. days 0, 3, 5): 6.32 | PLT ([2]; 50 mg/kg p.o. days 0, 3, 5): 873.67 | WBC ([2]; 50 mg/kg p.o. days 0, 3, 5): 8.70 | MCV ([2]; 50 mg/kg p.o. days 0, 3, 5): 53.27 | RDW-SD ([2]; 50 mg/kg p.o. days 0, 3, 5): 31.07 | HGB ([2]; 50 mg/kg p.o. days 0, 3, 5): 153.67 | MCHC ([2]; 50 mg/kg p.o. days 0, 3, 5): 290.33 | MCH ([2]; 50 mg/kg p.o. days 0, 3, 5): 15.50 | Mon ([2]; 50 mg/kg p.o. days 0, 3, 5): 1.09 10^9/L | blood count analysis, overall finding ([2]; p.o. 5, 25 and 50 mg/kg): no abnormal changes
